Test results as given in US20150368297A1, “Novel Peptide Compound for Inhibiting Restenosis and Promoting Re-Endothelialization and Method for Preparing the Same” (Chonnam National University Hospital, priority 2014, published 2015).

Tested on: vascular smooth muscle cell (SMC)
Assay: Effect on proliferation of vascular smooth muscle cell (SMC), XTT assay
Assay type: cell-based
Conditions: 1 uM compound; measured at 1, 4 and 7 days; versus non-treated control; FIG. 1
Description: As cells used in a cell culture, the vascular smooth muscle cell (SMC) which is a smooth muscle cell, and the human umbilical vein endothelial cell (HUVEC) which is the cell for promoting vascular re-endothelialization were purchased from Korea Cell Line Bank, respectively. The cell culture was performed by culturing the vascular smooth muscle cell (SMC) and the human umbilical vein endothelial cell (HUVEC) in Dulbecoco's modified eagle medium (DMEM) with 10% fetal bovine serum (FBS) under conditions of 37° C. and 5% CO2. […]
(§1) 5×10^4 of SMC cells cultured according to Example 2 were cultured in the 24-well cell culture plate and then treated with 1 uM of the peptide compound prepared by Example 2 (hereinafter, referred to as ‘EVR-P’). […] After the reaction, 200 ul of the culture medium was transferred from each well to a 96 well cell culture dish, and degree of color change was measured from absorbance at a 450 nm wavelength by a spectroscopy.
as §1, with “the known Everolimus (EVR)(LC Laboratories).” for “the peptide compound prepared by Example 2 (hereinafter, referred to as ‘EVR-P’).”, “to the” for “to a”

Compound: CO[C@H]1C[C@@H]2CC[C@@H](C)[C@@](O)(O2)C(=O)C(=O)N2CCCC[C@H]2C(=O)O[C@H]([C@H](C)C[C@@H]2CC[C@@H](OCCO)[C@H](OC)C2)CC(=O)[C@H](C)/C=C(\C)[C@@H](O)[C@@H](OC)C(=O)[C@H](C)C[C@H](C)/C=C/C=C/C=C/1C [EVR, Everolimus]
- SMC cell proliferation (XTT, absorbance at 450 nm): cell proliferation was inhibited
